# In paper PMC9981747, “A covalent BTK ternary complex compatible with targeted protein degradation” (Nature Communications, 2023):
# Where “and” joins values, the source holds several entries; their conditions need not be identical. Identical values can stand only once. Like-named read-outs stand apart in the source and are kept apart here.
# Columns and labels:
# [1] = target: T1, BTK^FL-C481S (Homo sapiens, UniProt Q06187+Q13490, C481S); test: Expi293 dose-dependent BTK degradation (western blot), BTK^FL-C481S co-transfected with cIAP1^FL; assay type: cell-based; settings: for C481S BTK blot signal normalized to DMSO: replicates; for DC50: Expi293, cIAP1^FL co-transfected, ~18 h, 3 experiments
# T1 construct: we used a full-length BTK (aa1-659) with a C terminal Tobacco Etch Virus protease (TEV) site; expressed in transfected cells; host or cells: Expi293 (HEK293)
# Method: Gibco Expi293 cell line Transfection Kit (Cat.# A14524) was cultured according to the manufacturers conditions. Cells were grown at 37 °C with 5% CO2 to 4 × 10^6 cells/mL using an orbital shaker set to 95 RPM. Next cells were split to 2 × 10^6 cells/mL and transfected with plasmid DNA at a 1 µg/mL final concentration in Optimem (Gibco 31985070) using the Expifectamine 293 transfection reagent according to manufacturer’s conditions. After approximately 18 h, enhancers 1 and 2 (provided with kit). Viability was typically about 85%. When cIAP1^FL was transfected, it was detected via α-cIAP1 antibody there was typically some autoubiquitination detected, and thus often appeared as a laddered or smeared band via western blotting. When BTK^FL variants were transfected, they were detected using anti-BTK antibody (D3H5).
# For dose-dependent degradation assays, cells were plated in a 24-well format and placed on a separate orbital shaker set to 115 RPM. Each well was treated with prescribed compound concentrations in the same manner as with THP-1 cells, with the exception of using Expifectamine 293 growth medium in place of RPMI 1640 complete media. After approximately 18 h post-treatment cells were harvested, centrifuged at 100 x g at 4 °C, washed twice with ice-cold PBS, and resuspended in RIPA buffer supplemented with a Roche protease inhibitor cocktail (Cat. #11873580001), and benzonase nuclease (Millipore-Sigma Cat# 70664). Each sample was incubated on ice for 30 min with periodic vortexing and centrifuged at 15 Kxg for 20 min. Clarified lysate was harvested and quantified using a Pierce BCA Assay Kit (Cat. #23225), and 20 µg of the sample was loaded into a 4–15% Criterion TGX gel (Bio-Rad, 5678085) and transferred to a nitrocellulose membrane (Life Technologies Cat. #IB23001) using an iBlot 2 (Life Technologies Cat. #IB21001). Proteins were detected using an iBind system (Life Technologies SLF2020). For BTK^T474I and BTK^T474I/C481S we inferred ligand entry into cells via the autoubiquitination and dose-dependent degradation of cIAP1^FL,[58].
# (§1) Dose-dependent Degradation was analyzed using ImageJ (NIH, version 1.50i). Densiometric analysis was performed, normalized to DMSO signal, and analyzed using GraphPad Prism (Version 9.0.0 (121)). Non-linear fit one-phase decay analysis was used to obtain DC50 values. When we observed a hook effect, some points were excluded as part of the fit. In Supplementary Fig. 7B the complete curve was fit using GraphPad Prism non-linear regression bell-shaped curve where X is the concentration. However, using this method we were unable to obtain stable values for our DC50. SEM error was plotted for each point. When determining statistically significant differences, we used a two-sided student’s unpaired T-Test.
# [2] = target: T2, BTK (Homo sapiens, UniProt Q06187+Q13490); test: THP-1 dose-dependent degradation of endogenous BTK; assay type: cell-based; settings: replicates
# T2 construct: a THP-1 cell line which natively expresses both BTK and cIAP1; host or cells: THP-1
# Method: Human monocytic leukemia THP-1 Cells (ATCC TIB202) were grown in RPMI 1640 complete media (Gibco Cat# 11875-093), 10% Heat Inactivated FBS (Gibco Cat# 10438026), 2 mM L-Glutamine (Gibco Cat# 25030-081), 10 mM HEPES (Lonza Cat# 17-737E). Cells were cultured to approximately 0.8 × 10^6 cells/mL, centrifuged at 100 x g at 4 °C for 5 min, and resuspended in growth medium at 1.25 × 10^6 cells/mL, and 750 µL were plated in a 24-well format. Compounds were serially diluted in DMSO and individually added to pre-warmed complete media at a 4x concentration. Subsequently, 250 µL was added to their respective well, making it a 1x concentration. Endpoint viability was ≥95%. Each experiment was performed with n = 3 independent experiments. Three datapoints are missing due to blot.
# as §1
# [3] = target: T3, BTK^KD and cIAP1^BUCR1 ternary complex (Homo sapiens, UniProt Q06187+Q13490); test: Biolayer interferometry (BLI) ternary complex formation; assay type: binding
# T3 construct: BTK^KD (aa384-659) were expressed and purified as previously described; cIAP1^BUCR1 (aa260-618), and BTK^KD (aa384-659) were expressed and purified as previously described; biotin / BAP (only when BTK^KD~BCCov was the sensor ligand); made in house; host or cells: BTK^KD: SF9 insect cells; cIAP1^BUCR1: E. coli BL21-DE3
# Method: We performed biolayer interferometry (BLI) with an OctetRED384 system (Data Acquisition Version 9.0.0.49) as described previously. […] Ligands were loaded onto streptavidin biosensors (ForteBio, 18-5019) for 120 s, washed in Octet buffer for 200 s, quenched with 50 μM d-biotin (Invitrogen) for 120 s, and washed in Octet buffer for 500 s. […] Excess compound was desalted using a Zeba Spin Desalting Column (Cat. #89882). The preformed binary complex was then dipped into varying concentrations of analyte diluted in Octet buffer for 300 s to determine kon, followed by a wash for 500 s to determine koff. Binding kinetics were calculated and plotted using BiaEvaluation Software (version 4.1.1). Cooperativity (α) was determined by calculating the ratio of binary Kd to ternary complex Kd.
# T3 sequence (Q06187 384-659): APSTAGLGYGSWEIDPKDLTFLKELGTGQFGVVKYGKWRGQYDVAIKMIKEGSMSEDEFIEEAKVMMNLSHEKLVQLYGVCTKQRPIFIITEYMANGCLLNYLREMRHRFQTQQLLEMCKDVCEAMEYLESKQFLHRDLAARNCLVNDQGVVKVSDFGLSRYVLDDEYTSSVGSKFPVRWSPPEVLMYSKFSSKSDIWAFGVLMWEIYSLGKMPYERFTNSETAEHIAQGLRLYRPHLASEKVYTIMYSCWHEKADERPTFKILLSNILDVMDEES
# T3 sequence (Q13490 260-618): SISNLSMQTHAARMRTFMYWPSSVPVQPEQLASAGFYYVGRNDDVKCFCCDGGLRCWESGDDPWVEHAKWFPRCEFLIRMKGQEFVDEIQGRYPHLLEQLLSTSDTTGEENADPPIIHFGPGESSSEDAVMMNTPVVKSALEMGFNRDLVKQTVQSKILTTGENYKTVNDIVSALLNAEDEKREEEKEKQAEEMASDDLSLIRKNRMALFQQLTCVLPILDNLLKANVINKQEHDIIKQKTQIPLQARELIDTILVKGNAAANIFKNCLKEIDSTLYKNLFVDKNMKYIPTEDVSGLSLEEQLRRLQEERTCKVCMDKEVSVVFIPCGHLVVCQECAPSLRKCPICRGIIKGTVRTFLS
# T2 sequence (Q06187 whole entry): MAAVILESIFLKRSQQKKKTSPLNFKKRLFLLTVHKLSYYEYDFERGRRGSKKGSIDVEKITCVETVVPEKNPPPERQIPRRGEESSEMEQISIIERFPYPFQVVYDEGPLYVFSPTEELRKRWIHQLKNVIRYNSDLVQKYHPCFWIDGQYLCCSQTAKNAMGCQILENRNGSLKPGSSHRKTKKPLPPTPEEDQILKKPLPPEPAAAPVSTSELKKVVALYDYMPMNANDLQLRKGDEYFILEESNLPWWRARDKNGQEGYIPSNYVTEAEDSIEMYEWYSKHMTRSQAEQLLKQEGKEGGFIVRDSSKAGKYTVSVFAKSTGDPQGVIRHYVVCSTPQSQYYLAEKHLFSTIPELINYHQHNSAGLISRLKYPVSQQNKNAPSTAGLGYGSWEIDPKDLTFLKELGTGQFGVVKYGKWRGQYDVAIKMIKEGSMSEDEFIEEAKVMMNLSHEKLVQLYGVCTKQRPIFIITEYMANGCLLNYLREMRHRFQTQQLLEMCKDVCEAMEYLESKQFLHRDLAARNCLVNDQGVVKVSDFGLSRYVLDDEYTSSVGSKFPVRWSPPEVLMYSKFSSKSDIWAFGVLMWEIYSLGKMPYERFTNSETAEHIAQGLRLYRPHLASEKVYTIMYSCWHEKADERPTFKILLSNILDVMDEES
# T2 sequence (Q13490 whole entry): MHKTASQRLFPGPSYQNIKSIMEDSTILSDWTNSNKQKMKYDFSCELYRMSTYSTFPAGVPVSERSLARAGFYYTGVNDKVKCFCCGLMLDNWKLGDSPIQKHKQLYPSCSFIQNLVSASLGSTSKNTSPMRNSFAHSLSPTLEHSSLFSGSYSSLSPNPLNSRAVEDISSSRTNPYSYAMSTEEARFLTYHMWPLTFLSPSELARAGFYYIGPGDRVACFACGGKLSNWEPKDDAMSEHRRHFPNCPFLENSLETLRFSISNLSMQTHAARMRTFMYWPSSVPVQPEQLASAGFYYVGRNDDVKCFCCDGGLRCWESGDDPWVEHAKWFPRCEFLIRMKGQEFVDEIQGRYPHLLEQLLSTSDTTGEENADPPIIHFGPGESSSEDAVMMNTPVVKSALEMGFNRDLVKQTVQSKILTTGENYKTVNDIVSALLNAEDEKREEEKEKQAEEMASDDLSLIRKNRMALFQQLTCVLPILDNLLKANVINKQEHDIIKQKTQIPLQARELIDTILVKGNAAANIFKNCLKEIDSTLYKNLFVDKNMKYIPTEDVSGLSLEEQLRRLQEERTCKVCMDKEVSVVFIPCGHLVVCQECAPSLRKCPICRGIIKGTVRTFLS
# T1 sequence (Q06187 whole entry C481S, the tested form may be a part): as the sequence (Q06187 whole entry) above, with C481S counted along it
# T1 sequence (Q13490 whole entry, the tested form may be a part): as the sequence (Q13490 whole entry) above
SMILES,C481S BTK blot signal normalized to DMSO ([1]; 0.004883 uM),C481S BTK blot signal normalized to DMSO ([1]; 0.009766 uM),C481S BTK blot signal normalized to DMSO ([1]; 0.019531 uM),C481S BTK blot signal normalized to DMSO ([1]; 0.039063 uM),C481S BTK blot signal normalized to DMSO ([1]; 0.078125 uM),C481S BTK blot signal normalized to DMSO ([1]; 0.15625 uM),C481S BTK blot signal normalized to DMSO ([1]; 0.3125 uM),C481S BTK blot signal normalized to DMSO ([1]; 0.625 uM),C481S BTK blot signal normalized to DMSO ([1]; 1.25 uM),C481S BTK blot signal normalized to DMSO ([1]; 2.5 uM),C481S BTK blot signal normalized to DMSO ([1]; 5 uM),DC50 [1] [nM],"endogenous BTK blot signal normalized to DMSO ([2]; THP-1, 0.63 uM)","endogenous BTK blot signal normalized to DMSO ([2]; THP-1, 1.25 uM)","endogenous BTK blot signal normalized to DMSO ([2]; THP-1, 2.50 uM)","endogenous BTK blot signal normalized to DMSO ([2]; THP-1, 5.00 uM)",also measured
CNC(C)C(=O)NC(C(=O)N1CC(NC(=O)COCCN2CCN(CC=CC(=O)N3CCCC(n4nc(-c5ccc(Oc6ccccc6)cc5)c5c(N)ncnc54)C3)CC2)CC1C(=O)NC1CCCc2ccccc21)C1CCCCC1 (stereo not shown) [BCCov],0.87 and 0.90 and 0.91,0.89 and 0.76 and 0.79,0.87 and 0.66 and 0.82,0.76 and 0.72 and 0.87,0.63 and 0.53 and 0.56,0.51 and 0.41 and 0.42,0.35 and 0.41 and 0.28,0.26 and 0.34 and 0.16,0.27 and 0.20 and 0.13,0.21 and 0.11 and 0.057,0.21 and 0.09 and 0.0641,122 ± 44,0.18 and 0.24 and 0.08,0.13 and 0.23 and 0.0336,0.11 and 0.00 and 0.00241,0.056 and 0.00 (2×),"endogenous BTK blot signal normalized to DMSO ([2]; THP-1, 0.00488 uM): 1.05 and 0.90 and 1.04; endogenous BTK blot signal normalized to DMSO ([2]; THP-1, 0.01 uM): 1.07 and 1.23 and 0.79; endogenous BTK blot signal normalized to DMSO ([2]; THP-1, 0.02 uM): 0.87 and 1.16 and 0.59; endogenous BTK blot signal normalized to DMSO ([2]; THP-1, 0.04 uM): 0.60 and 1.52 and 0.48; endogenous BTK blot signal normalized to DMSO ([2]; THP-1, 0.08 uM): 0.50 and 0.87 and 0.33; endogenous BTK blot signal normalized to DMSO ([2]; THP-1, 0.16 uM): 0.45 and 0.72 and 0.21; endogenous BTK blot signal normalized to DMSO ([2]; THP-1, 0.31 uM): 0.22 and 0.32 and 0.13; Kd [3]: 72.5 nM; cooperativity factor α = Kd binary/Kd ternary ([3]; upper limit): ≤ 0.2"
CNC(C)C(=O)NC(C(=O)N1CC(NC(=O)COCCN2CCN(CCCC(=O)N3CCCC(n4nc(-c5ccc(Oc6ccccc6)cc5)c5c(N)ncnc54)C3)CC2)CC1C(=O)NC1CCCc2ccccc21)C1CCCCC1 (stereo not shown) [BCNC],0.87 and 1.00 (2×),0.89 and 0.76 and 0.79,0.87 and 0.66 and 0.82,0.76 and 0.72 and 0.87,0.63 and 0.53 and 0.56,0.51 and 0.41 and 0.42,0.35 and 0.41 and 0.28,0.26 and 0.34 and 0.16,0.27 and 0.20 and 0.13,0.21 and 0.11 and 0.057,0.21 and 0.09 and 0.0641,145 ± 58,0.00,0.00,0.00,0.00,"endogenous BTK blot signal normalized to DMSO ([2]; THP-1, 0.00488 uM, listed as noncov): 0.97 and 1.25 and 1.03; endogenous BTK blot signal normalized to DMSO ([2]; THP-1, 0.01 uM, listed as noncov): 1.01 and 1.22 and 0.91; endogenous BTK blot signal normalized to DMSO ([2]; THP-1, 0.02 uM, listed as noncov): 1.09 and 1.18 and 0.86; endogenous BTK blot signal normalized to DMSO ([2]; THP-1, 0.04 uM, listed as noncov): 1.06 and 1.18 and 0.70; endogenous BTK blot signal normalized to DMSO ([2]; THP-1, 0.08 uM, listed as noncov): 0.36 and 0.68 and 0.42; endogenous BTK blot signal normalized to DMSO ([2]; THP-1, 0.16 uM, listed as noncov): 0.23 and 0.28 (2×); endogenous BTK blot signal normalized to DMSO ([2]; THP-1, 0.31 uM, listed as noncov): 0.17 and 0.09 and 0.13; Kd ([3]; [cIAP1^BUCR1-BCNC] binary complex binding BTK^KD, read-out: Kd, ternary complex): 49.8 nM"
